Patent US11673897B2, “Compounds for the treatment of kinase-dependent disorders” (Exelixis, Inc., priority 2018, dated 2023)

Columns and labels:
Format in all cases: cell-based
AXL = AXL (Homo sapiens (Human), UniProt P30530); test: AXL autophosphorylation ELISA in A-172 cells; conditions: cellular, Gas6-stimulated, phospho-AXL ELISA
Method: A-172 glioblastoma cells (ATCC #CRL-1620) were seeded at 2.5×10^5 cells/well onto 24-well plates (Greiner #662165), in […] (Thermo Fisher #11995-040) containing 10% FBS (Thermo Fisher #26140-079), […] (Thermo Fisher #11140-050), […] (Thermo Fisher #35050-061), and 1% Penicillin Streptomycin (Thermo Fisher #15140-122). A-172 cells were incubated at 37° C., […] for 24 hand then starved for 24 h in serum-free medium. Test compounds were serially diluted to produce an 8-point dose curve in fresh serum-free medium to a final concentration of 0.3% DMSO (vehicle) and added to the cells and incubated for 1 h. Cells were then stimulated with 1 μg/mL recombinant human Gas6 (R&D Systems #885-GSB-500) for 15 min, washed with cold PBS, and immediately lysed with 150 μL of cold 1× lysis buffer [20 mM Tris, 137 mM sodium chloride, 2 mM EDTA, 10% glycerol, 1% NP-40 alternative, 1 mM activated sodium orthovanadate, 1 mM PefaBloc SC (Sigma-Aldrich #11429868001), protease/phosphatase inhibitor tablet (Thermo Fisher #A32959)]. Lysates were collected and 100 μL/well added into the human phospho-AXL DuoSet IC ELISA (R&D Systems #DYC2228-2). Assay was performed according to manufacturer's instructions and sample phospho-AXL concentrations were extrapolated using human phospho-AXL control (R&D Systems #841645) as a standard. Positive control wells (100% activity) contained Gas6-stimulated, DMSO-treated cell lysates. Negative control wells (0% activity) contained Gas6-stimulated, reference inhibitor-treated cell lysates. IC50 values were calculated by nonlinear regression analysis using a 4-parameter logistic curve fit in ActivityBase XE (IDBS).

Mer = Mer (Homo sapiens (Human), UniProt Q12866); test: Mer autophosphorylation ELISA in transient transfected 293A cells; conditions: cellular, MERTK-transfected 293A cells, phospho-Mer ELISA
Chain of Mer (Q12866 21-999): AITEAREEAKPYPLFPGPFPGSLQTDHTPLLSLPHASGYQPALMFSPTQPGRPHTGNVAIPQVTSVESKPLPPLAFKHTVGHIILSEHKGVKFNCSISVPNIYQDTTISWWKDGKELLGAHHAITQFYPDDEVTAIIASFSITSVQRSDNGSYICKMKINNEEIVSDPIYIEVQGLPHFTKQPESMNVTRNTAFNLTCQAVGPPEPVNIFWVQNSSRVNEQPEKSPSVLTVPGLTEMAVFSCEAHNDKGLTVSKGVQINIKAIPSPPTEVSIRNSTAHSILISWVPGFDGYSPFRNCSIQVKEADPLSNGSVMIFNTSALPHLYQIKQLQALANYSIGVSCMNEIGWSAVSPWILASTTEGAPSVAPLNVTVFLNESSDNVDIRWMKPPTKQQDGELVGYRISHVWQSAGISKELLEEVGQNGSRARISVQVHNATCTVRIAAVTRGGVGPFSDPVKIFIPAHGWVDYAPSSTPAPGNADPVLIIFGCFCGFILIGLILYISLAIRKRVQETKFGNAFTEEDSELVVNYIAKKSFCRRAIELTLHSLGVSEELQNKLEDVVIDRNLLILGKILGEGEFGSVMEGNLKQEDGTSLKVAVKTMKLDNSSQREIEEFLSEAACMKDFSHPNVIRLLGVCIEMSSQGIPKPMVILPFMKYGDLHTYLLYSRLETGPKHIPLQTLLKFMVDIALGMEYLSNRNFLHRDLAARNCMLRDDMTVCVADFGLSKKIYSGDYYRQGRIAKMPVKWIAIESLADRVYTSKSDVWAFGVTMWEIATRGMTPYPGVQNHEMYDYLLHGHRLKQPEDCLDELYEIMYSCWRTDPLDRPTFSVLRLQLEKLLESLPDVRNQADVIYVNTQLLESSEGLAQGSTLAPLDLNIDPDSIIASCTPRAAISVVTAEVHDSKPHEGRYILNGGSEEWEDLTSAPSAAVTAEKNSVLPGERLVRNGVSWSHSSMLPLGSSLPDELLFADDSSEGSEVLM
Method: 293A cells (Thermo Fisher #R70507) were seeded at 1.5×10^6 cells/well onto 100 mm dish (Greiner #664169), in DMEM (Thermo Fisher #11995-040) containing 10% FBS (Thermo Fisher #26140-079), 1% MEM NEAA (Thermo Fisher #11140-050), 1% GlutaMax (Thermo Fisher #35050-061), and 1% Penicillin Streptomycin (Thermo Fisher #15140-122). 293A cells were incubated at 37° C., 5% CO2 for 24 h and then transfected with 6 μg MERTK DNA (Genecopoeia #EX-Z8208-M02) using TransIT LT1 transfection reagent (Mirus-Bio #MIR2305). After 24 h incubation, the transfected 293A cells were seeded at 1×10^5 cells/well onto 96-well plates (Corning #3904) in DMEM growth medium overnight. Test compounds were serially diluted to produce an 8-point dose curve in fresh serum-free medium to a final concentration of 0.3% DMSO (vehicle) and added to the cells and incubated for 1 h. Cells were then immediately lysed with 150 μL of cold 1× lysis buffer [20 mM Tris, 137 mM sodium chloride, 2 mM EDTA, 10% glycerol, 1% NP-40 alternative, 1 mM activated sodium orthovanadate, 1 mM PefaBloc SC (Sigma-Aldrich #11429868001), protease/phosphatase inhibitor tablet (Thermo Fisher #A32959)]. Lysates were clarified by centrifugation and 50 μL/well added into the human phospho-Mer DuoSet IC ELISA (R&D Systems #DYC2579-2). Assay was performed according to manufacturer's instructions and sample phospho-Mer concentrations were extrapolated using human phospho-Mer control (R&D Systems #841793) as a standard. Positive control wells (100% activity) contained DMSO-treated cell lysates. Negative control wells (0% activity) contained reference inhibitor-treated cell lysates. IC50 values were calculated by nonlinear regression analysis using a 4-parameter logistic curve fit in ActivityBase XE (IDBS).

Met = Met (Homo sapiens (Human), UniProt P08581); test: Met autophosphorylation ELISA in PC-3 cells; conditions: cellular, HGF-stimulated, phospho-Met ELISA, read-out: c-Met IC50
Chain of Met (P08581 25-1390): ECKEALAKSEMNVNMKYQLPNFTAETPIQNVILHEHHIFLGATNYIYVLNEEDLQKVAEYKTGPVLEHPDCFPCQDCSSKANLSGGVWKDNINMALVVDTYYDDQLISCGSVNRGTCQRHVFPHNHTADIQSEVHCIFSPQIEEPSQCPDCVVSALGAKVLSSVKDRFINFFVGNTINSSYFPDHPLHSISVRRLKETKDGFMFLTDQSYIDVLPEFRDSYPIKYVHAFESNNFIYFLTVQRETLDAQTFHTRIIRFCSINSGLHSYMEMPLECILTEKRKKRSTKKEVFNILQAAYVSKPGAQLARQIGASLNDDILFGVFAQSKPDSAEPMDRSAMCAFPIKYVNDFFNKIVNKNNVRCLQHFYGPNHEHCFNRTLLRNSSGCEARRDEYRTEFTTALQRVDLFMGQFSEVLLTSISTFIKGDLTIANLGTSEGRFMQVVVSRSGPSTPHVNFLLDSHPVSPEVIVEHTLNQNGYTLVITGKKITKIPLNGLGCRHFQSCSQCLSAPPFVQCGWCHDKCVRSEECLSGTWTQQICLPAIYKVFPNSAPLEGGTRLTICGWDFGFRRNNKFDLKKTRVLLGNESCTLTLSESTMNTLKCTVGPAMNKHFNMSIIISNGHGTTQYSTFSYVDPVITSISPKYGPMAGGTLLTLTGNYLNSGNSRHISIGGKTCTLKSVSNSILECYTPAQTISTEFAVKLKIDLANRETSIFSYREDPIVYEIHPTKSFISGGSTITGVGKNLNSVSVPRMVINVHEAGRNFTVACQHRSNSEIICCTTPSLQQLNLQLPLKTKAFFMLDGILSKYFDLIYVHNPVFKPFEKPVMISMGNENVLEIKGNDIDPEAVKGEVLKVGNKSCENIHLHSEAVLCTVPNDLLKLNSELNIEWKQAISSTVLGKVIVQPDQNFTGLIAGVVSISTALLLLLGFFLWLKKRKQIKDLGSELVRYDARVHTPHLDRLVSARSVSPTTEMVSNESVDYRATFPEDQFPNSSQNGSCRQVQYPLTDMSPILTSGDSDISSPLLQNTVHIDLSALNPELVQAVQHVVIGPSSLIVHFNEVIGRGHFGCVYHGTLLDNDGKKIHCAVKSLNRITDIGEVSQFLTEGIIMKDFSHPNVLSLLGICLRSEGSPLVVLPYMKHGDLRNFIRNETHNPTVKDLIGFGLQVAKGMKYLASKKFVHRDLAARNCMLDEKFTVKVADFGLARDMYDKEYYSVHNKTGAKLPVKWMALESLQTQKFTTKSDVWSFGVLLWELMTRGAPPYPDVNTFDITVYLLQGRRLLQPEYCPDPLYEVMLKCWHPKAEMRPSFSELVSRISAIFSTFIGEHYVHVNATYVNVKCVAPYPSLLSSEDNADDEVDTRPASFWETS
Method: PC-3 prostate cancer cells (ATCC #CRL-1435) were seeded at 4×10^4 cells/well onto 24-well plates (Greiner #662165), in DMEM (Thermo Fisher #11995-040) containing 10% FBS (Thermo Fisher #26140-079), 1% MEM NEAA (Thermo Fisher #11140-050), 1% GlutaMax (Thermo Fisher #35050-061), and 1% Penicillin Streptomycin (Thermo Fisher #15140-122). PC-3 cells were incubated at 37° C., 5% CO2 for 24 h and then starved for 3 h in serum-free medium. Test compounds were serially diluted to produce an 8-point dose curve in fresh serum-free medium to a final concentration of 0.3% DMSO (vehicle) and added to the cells and incubated for 1 h. Cells were then stimulated with 100 ng/mL recombinant human HGF (R&D Systems #294-HG-250) for 10 min, washed with cold PBS, and immediately lysed with 130 μL of cold 1× lysis buffer [20 mM Tris, 137 mM sodium chloride, 2 mM EDTA, 10% glycerol, 1% NP-40 alternative, 1 mM activated sodium orthovanadate, 1 mM PefaBloc SC (Sigma-Aldrich #11429868001), and protease/phosphatase inhibitor tablet (Thermo Fisher #A32959)]. Lysates were clarified by centrifugation and 100 μL/well added into the PathScan phospho-Met (panTyr) Sandwich ELISA (Cell Signaling Technology #7333). Assay was performed according to manufacturer's instructions. Positive control wells (100% activity) contained HGF-stimulated, DMSO-treated cell lysates. Negative control wells (0% activity) contained HGF-stimulated, reference inhibitor-treated cell lysates. IC50 values were calculated by nonlinear regression analysis using a 4-parameter logistic curve fit in ActivityBase XE (IDBS).

KDR = KDR (Homo sapiens (Human), UniProt P35968); test: KDR autophosphorylation ELISA in HUVEC cells; conditions: cellular, VEGF165-stimulated, phospho-KDR ELISA
Chain of KDR (P35968 20-1356): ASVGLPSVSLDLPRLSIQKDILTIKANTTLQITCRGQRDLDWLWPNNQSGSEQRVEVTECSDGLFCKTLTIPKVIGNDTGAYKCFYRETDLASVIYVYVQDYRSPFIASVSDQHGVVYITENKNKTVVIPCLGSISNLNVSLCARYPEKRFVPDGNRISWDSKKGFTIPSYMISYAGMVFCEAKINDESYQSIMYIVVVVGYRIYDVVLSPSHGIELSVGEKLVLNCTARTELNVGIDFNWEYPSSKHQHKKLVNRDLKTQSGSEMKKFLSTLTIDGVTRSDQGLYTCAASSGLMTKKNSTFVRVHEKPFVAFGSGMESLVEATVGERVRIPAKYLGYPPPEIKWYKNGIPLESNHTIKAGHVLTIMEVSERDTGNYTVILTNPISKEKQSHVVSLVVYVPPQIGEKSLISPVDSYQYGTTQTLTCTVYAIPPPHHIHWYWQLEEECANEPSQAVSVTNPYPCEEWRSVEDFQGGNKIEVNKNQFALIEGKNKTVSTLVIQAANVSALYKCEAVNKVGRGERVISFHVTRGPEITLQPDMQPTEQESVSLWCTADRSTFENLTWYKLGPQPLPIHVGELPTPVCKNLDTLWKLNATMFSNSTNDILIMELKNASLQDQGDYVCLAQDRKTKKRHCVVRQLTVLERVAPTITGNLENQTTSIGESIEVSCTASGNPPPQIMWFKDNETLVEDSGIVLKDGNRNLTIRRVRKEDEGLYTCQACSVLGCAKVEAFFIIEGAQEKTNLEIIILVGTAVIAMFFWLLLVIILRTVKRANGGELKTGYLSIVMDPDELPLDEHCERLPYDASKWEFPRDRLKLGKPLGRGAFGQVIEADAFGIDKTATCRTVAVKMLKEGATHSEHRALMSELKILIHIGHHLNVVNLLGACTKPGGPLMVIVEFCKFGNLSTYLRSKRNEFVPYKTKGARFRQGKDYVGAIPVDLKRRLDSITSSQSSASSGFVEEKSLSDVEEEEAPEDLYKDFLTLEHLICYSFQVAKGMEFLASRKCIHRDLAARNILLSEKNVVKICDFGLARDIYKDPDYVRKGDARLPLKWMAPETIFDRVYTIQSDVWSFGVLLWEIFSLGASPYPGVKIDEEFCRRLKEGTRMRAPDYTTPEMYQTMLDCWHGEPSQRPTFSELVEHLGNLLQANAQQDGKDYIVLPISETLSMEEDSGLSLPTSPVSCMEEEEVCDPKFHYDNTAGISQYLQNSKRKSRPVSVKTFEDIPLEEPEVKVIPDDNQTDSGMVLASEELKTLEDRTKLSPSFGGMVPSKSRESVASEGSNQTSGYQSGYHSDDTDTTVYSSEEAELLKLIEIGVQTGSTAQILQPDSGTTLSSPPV
Method: Human umbilical vein endothelial cells or HUVEC (Lonza #C2519A) were seeded at 2×10^4 cells/well onto 96-well plates (Corning #3904), in EGM-2 growth medium (Lonza #CC-3162) containing 1% Penicillin Streptomycin (Thermo Fisher #15140-122). HUVEC cells were incubated at 37° C., 5% CO2 for 24 h and then starved for 24 h in serum-free EBM-2 basal medium (Lonza #CC-3156) containing 1% Penicillin Streptomycin. Test compounds were serially diluted to produce an 8-point dose curve in fresh serum-free medium to a final concentration of 0.3% DMSO (vehicle) and added to the cells and incubated for 1 h. Cells were then stimulated with 100 ng/mL recombinant human VEGF165 (R&D Systems #293-VE-500) for 5 min, washed with cold PBS, and immediately lysed with 130 μL of cold 1× lysis buffer [20 mM Tris, 137 mM sodium chloride, 2 mM EDTA, 10% glycerol, 1% NP-40 alternative, 1 mM activated sodium orthovanadate, 1 mM PefaBloc SC (Sigma-Aldrich #11429868001), protease/phosphatase inhibitor tablet (Thermo Fisher #A32959)]. Lysates were collected and 100 μL/well added into the human phospho-KDR DuoSet IC ELISA (R&D Systems #DYC1766-2). Assay was performed according to manufacturer's instructions and sample phospho-KDR concentrations were extrapolated using human phospho-KDR control (R&D Systems #841421) as a standard. Positive control wells (100% activity) contained VEGF165-stimulated, DMSO-treated cell lysates. Negative control wells (0% activity) contained non-stimulated cell lysates. IC50 values were calculated by nonlinear regression analysis using a 4-parameter logistic curve fit in ActivityBase XE (IDBS).

Chain of AXL (P30530 26-894): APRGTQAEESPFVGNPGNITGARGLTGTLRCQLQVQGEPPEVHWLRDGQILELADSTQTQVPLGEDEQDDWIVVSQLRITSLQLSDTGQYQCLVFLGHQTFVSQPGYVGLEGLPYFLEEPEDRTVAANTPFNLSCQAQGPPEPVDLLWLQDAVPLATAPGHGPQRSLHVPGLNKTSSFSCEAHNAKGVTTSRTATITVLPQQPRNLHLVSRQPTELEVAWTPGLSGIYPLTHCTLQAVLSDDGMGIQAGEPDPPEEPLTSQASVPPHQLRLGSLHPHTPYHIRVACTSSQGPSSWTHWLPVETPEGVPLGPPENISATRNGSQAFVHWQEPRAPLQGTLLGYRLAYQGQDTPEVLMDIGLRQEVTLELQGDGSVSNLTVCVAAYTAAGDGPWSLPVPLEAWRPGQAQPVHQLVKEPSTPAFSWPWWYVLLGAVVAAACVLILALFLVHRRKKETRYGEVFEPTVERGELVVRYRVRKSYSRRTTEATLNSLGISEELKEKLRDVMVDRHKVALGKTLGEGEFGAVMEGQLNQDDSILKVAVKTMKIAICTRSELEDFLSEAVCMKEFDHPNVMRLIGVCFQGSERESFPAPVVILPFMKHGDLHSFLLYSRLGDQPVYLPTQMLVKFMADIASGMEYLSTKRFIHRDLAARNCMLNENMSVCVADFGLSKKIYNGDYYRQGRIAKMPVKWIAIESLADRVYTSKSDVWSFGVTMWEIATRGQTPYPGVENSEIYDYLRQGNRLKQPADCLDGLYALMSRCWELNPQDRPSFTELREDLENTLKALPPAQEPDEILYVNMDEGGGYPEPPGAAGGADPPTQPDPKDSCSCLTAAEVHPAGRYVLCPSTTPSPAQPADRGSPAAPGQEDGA

SMILES	IC50 (AXL) [nM]	IC50 (Mer) [nM]	IC50 (Met) [nM]	IC50 (KDR) [nM]
CCNC(=O)c1cc2c(Oc3ncc(NC(=O)C4(C(=O)Nc5ccc(F)cc5)CC4)cc3F)ccnc2cc1OC [Compound 23, 1-N′-[6-[6-(Ethylcarbamoyl)-7-methoxyquinolin-4-yl]oxy-5-fluoropyridin-3-yl]-1-N-(4-fluorophenyl)cyclopropane-1,1-dicarboxamide]	10 to 100	10 to 100	10 to 100	> 300
CNC(=O)c1cc2c(Oc3ncc(NC(=O)C4(C(=O)Nc5ccc(F)cc5)CC4)cc3Cl)ccnc2cc1OCCO [Compound 37, 1-N′-[5-Chloro-6-[7-(2-hydroxyethoxy)-6-(methylcarbamoyl)quinolin-4-yl]oxypyridin-3-yl]-1-N-(4-fluorophenyl)cyclopropane-1,1-dicarboxamide]	10 to 100	100 to 300	10 to 100	> 300
NC(=O)c1cc2c(Oc3ncc(NC(=O)C4(C(=O)Nc5ccc(F)cc5)CC4)cc3Cl)ccnc2cc1OCCO [Compound 38, 1-N′-[6-[6-Carbamoyl-7-(2-hydroxyethoxy)quinolin-4-yl]oxy-5-chloropyridin-3-yl]-1-N-(4-fluorophenyl)cyclopropane-1,1-dicarboxamide]	10 to 100	10 to 100	10 to 100	> 300
NC(=O)c1cc2c(Oc3ncc(NC(=O)C4(C(=O)Nc5ccc(F)cc5)CC4)cc3F)ccnc2cc1OCCO [Compound 39, 1-N′-[6-[6-Carbamoyl-7-(2-hydroxyethoxy)quinolin-4-yl]oxy-5-fluoropyridin-3-yl]-1-N-(4-fluorophenyl)cyclopropane-1,1-dicarboxamide]	10 to 100	100 to 300	10 to 100	> 300
CNC(=O)c1cc2c(Oc3ncc(NC(=O)C4(C(=O)Nc5ccc(F)cc5)CC4)cc3Cl)ccnc2cc1OCC(C)O (centres unmarked) [Compound 50, 1-N′-[5-Chloro-6-[7-(2-hydroxypropoxy)-6-(methylcarbamoyl)-quinolin-4-yl]oxypyridin-3-yl]-1-N-(4-fluorophenyl)cyclopropane-1,1-dicarboxamide]	10 to 100	10 to 100	10 to 100	> 300
CC(O)COc1cc2nccc(Oc3ncc(NC(=O)C4(C(=O)Nc5ccc(F)cc5)CC4)cc3Cl)c2cc1C(N)=O (centres unmarked) [Compound 51, 1-N′-[6-[6-Carbamoyl-7-(2-hydroxypropoxy)quinolin-4-yl]oxy-5-chloropyridin-3-yl]-1-N-(4-fluorophenyl)cyclopropane-1,1-dicarboxamide]	10 to 100	10 to 100	10 to 100	> 300

Now from value to compound:

IC50 (AXL) [nM]	IC50 (Mer) [nM]	IC50 (Met) [nM]	IC50 (KDR) [nM]	SMILES
≤ 10	10 to 100	10 to 100	> 300	COc1cc2nccc(Oc3ncc(NC(=O)C4(C(=O)Nc5ccc(F)cc5)CC4)cc3Cl)c2cc1-c1ncco1 [Compound 64, 1-N′-[5-Chloro-6-[7-methoxy-6-(1,3-oxazol-2-yl)quinolin-4-yl]oxypyridin-3-yl]-1-N-(4-fluorophenyl)cyclopropane-1,1-dicarboxamide]
10 to 100	10 to 100	10 to 100	> 300	COc1cc2nccc(Oc3ncc(NC(=O)C4(C(=O)Nc5ccc(F)cc5)CC4)cc3F)c2cc1-c1nnco1 [Compound 67, 1-N′-[5-Fluoro-6-[7-methoxy-6-(1,3,4-oxadiazol-2-yl)quinolin-4-yl]oxypyridin-3-yl]-1-N-(4-fluorophenyl)cyclopropane-1,1-dicarboxamide]
10 to 100	10 to 100	10 to 100	> 300	COc1cc2nccc(Oc3ncc(NC(=O)C4(C(=O)Nc5ccc(F)cc5)CC4)cc3Cl)c2cc1-c1nnco1 [Compound 68, 1-N′-[5-Chloro-6-[7-methoxy-6-(1,3,4-oxadiazol-2-yl)quinolin-4-yl]oxypyridin-3-yl]-1-N-(4-fluorophenyl)cyclopropane-1,1-dicarboxamide]
10 to 100	10 to 100	10 to 100	> 300	COc1cc2nccc(Oc3ncc(NC(=O)C4(C(=O)Nc5ccc(F)cc5)CC4)cc3Cl)c2cc1-c1ncc[nH]1 [Compound 71, 1-N′-[5-Chloro-6-[6-(1H-imidazol-2-yl)-7-methoxyquinolin-4-yl]oxypyridin-3-yl]-1-N-(4-fluorophenyl)cyclopropane-1,1-dicarboxamide]
≤ 10	10 to 100	10 to 100	> 300	COc1cc2nccc(Oc3ncc(NC(=O)C4(C(=O)Nc5ccc(F)cc5)CC4)cc3F)c2cc1-c1ncc[nH]1 [Compound 72, 1-N′-[5-Fluoro-6-[6-(1H-imidazol-2-yl)-7-methoxyquinolin-4-yl]oxypyridin-3-yl]-1-N-(4-fluorophenyl)cyclopropane-1,1-dicarboxamide]
